pIC50: −log10 of the molar value.
Assays:
[1] = target: T1, High affinity nerve growth factor receptor (Homo sapiens, UniProt P04629); assay: Inhibition of recombinant His-tagged human TRKA (441 to 796 residues) expressed in baculovirus expression system using 5-FAM-EEPLYWSFPAKKK-CONH2 as substrate preincubated for 1 hr followed by substrate addition in presence of ATP by mobility shift assay
Target sequence in this assay (P04629 whole entry, the tested form may be a part): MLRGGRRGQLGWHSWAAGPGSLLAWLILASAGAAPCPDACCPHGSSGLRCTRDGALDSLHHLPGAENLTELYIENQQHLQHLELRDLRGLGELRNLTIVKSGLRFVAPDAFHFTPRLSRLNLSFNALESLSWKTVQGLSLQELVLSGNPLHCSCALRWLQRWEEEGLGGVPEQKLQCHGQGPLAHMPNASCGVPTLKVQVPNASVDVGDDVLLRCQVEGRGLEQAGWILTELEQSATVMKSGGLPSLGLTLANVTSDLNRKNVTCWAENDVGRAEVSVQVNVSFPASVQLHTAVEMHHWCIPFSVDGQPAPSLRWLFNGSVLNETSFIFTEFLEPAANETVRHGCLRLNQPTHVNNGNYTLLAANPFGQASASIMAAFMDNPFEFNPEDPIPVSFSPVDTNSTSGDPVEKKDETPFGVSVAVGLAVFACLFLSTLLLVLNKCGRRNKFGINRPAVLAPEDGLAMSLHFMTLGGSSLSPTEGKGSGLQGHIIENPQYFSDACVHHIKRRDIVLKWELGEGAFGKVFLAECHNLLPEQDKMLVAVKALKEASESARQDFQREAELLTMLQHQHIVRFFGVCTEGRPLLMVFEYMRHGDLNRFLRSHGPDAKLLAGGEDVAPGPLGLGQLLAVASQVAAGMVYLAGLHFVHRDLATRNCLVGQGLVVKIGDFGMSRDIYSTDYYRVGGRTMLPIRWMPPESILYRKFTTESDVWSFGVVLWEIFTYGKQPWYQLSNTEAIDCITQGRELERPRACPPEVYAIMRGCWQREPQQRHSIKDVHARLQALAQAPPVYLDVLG

UO-31 = assay: Antiproliferative activity against human UO-31 cells assessed as cell growth at 10 uM relative to control; type: functional; details: read-out: Activity
Malme-3M = assay: Antiproliferative activity against human MALME-3M cells assessed as cell growth at 10 uM relative to control; type: functional; details: read-out: Activity
COLO 205 = assay: Antiproliferative activity against human COLO 205 cells assessed as cell growth at 10 uM relative to control; type: functional; details: read-out: Activity
SF-268 = assay: Antiproliferative activity against human SF-268 cells assessed as cell growth at 10 uM relative to control; type: functional; details: read-out: Activity
NCI/ADR-RES = assay: Antiproliferative activity against human NCI/ADR-RES cells assessed as cell growth at 10 uM relative to control; type: functional; details: read-out: Activity
SK-MEL-5 = assay: Antiproliferative activity against human SK-MEL-5 cells assessed as cell growth at 10 uM relative to control; type: functional; details: read-out: Activity
CAKI-1 = assay: Antiproliferative activity against human CAKI-1 cells assessed as cell growth at 10 uM relative to control; type: functional; details: read-out: Activity
K562 = assay: Antiproliferative activity against human K562 cells assessed as cell growth at 10 uM relative to control; type: functional; details: read-out: Activity
HCT-116 = assay: Antiproliferative activity against human HCT-116 cells assessed as cell growth at 10 uM relative to control; type: functional; details: read-out: Activity
U-251 = assay: Antiproliferative activity against human U-251 cells assessed as cell growth at 10 uM relative to control; type: functional; details: read-out: Activity
SN12C = assay: Antiproliferative activity against human SN12C cells assessed as cell growth at 10 uM relative to control; type: functional; details: read-out: Activity
UACC-62 = assay: Antiproliferative activity against human UACC-62 cells assessed as cell growth at 10 uM relative to control; type: functional; details: read-out: Activity
PC-3 = assay: Antiproliferative activity against human PC-3 cells assessed as cell growth at 10 uM relative to control; type: functional; details: read-out: Activity
OVCAR-3 = assay: Antiproliferative activity against human OVCAR-3 cells assessed as cell growth at 10 uM relative to control; type: functional; details: read-out: Activity
Hs-578T = assay: Antiproliferative activity against human Hs-578T cells assessed as cell growth at 10 uM relative to control; type: functional; details: read-out: Activity
LOX IMVI = assay: Antiproliferative activity against human LOX IMVI cells assessed as cell growth at 10 uM relative to control; type: functional; details: read-out: Activity
BT-549 = assay: Antiproliferative activity against human BT-549 cells assessed as cell growth at 10 uM relative to control; type: functional; details: read-out: Activity
SNB-75 = assay: Antiproliferative activity against human SNB-75 cells assessed as cell growth at 10 uM relative to control; type: functional; details: read-out: Activity
OVCAR-5 = assay: Antiproliferative activity against human OVCAR-5 cells assessed as cell growth at 10 uM relative to control; type: functional; details: read-out: Activity
MDA-MB-468 = assay: Antiproliferative activity against human MDA-MB-468 cells assessed as cell growth at 10 uM relative to control; type: functional; details: read-out: Activity
MDA-MB-435 = assay: Antiproliferative activity against human MDA-MB-435 cells assessed as cell growth at 10 uM relative to control; type: functional; details: read-out: Activity
M14 = assay: Antiproliferative activity against human M14 cells assessed as cell growth at 10 uM relative to control; type: functional; details: read-out: Activity
SR = assay: Antiproliferative activity against human SR cells assessed as cell growth at 10 uM relative to control; type: functional; details: read-out: Activity
MOLT-4 = assay: Antiproliferative activity against human MOLT-4 cells assessed as cell growth at 10 uM relative to control; type: functional; details: read-out: Activity
OVCAR-4 = assay: Antiproliferative activity against human OVCAR-4 cells assessed as cell growth at 10 uM relative to control; type: functional; details: read-out: Activity
MDA-MB-231 = assay: Antiproliferative activity against human MDA-MB-231 cells assessed as cell growth at 10 uM relative to control; type: functional; details: read-out: Activity
NCI-H322M = assay: Antiproliferative activity against human NCI-H322M cells assessed as cell growth at 10 uM relative to control; type: functional; details: read-out: Activity
HT-29 = assay: Antiproliferative activity against human HT-29 cells assessed as cell growth at 10 uM relative to control; type: functional; details: read-out: Activity
NCI-H522 = assay: Antiproliferative activity against human NCI-H522 cells assessed as cell growth at 10 uM relative to control; type: functional; details: read-out: Activity
A549 = assay: Antiproliferative activity against human A549 cells assessed as cell growth at 10 uM relative to control; type: functional; details: read-out: Activity
SW-620 = assay: Antiproliferative activity against human SW-620 cells assessed as cell growth at 10 uM relative to control; type: functional; details: read-out: Activity
A498 = assay: Antiproliferative activity against human A498 cells assessed as cell growth at 10 uM relative to control; type: functional; details: read-out: Activity
NCI-H226 = assay: Antiproliferative activity against human NCI-H226 cells assessed as cell growth at 10 uM relative to control; type: functional; details: read-out: Activity
NCI-H460 = assay: Antiproliferative activity against human NCI-H460 cells assessed as cell growth at 10 uM relative to control; type: functional; details: read-out: Activity
786-0 = assay: Antiproliferative activity against human 786-0 cells assessed as cell growth at 10 uM relative to control; type: functional; details: read-out: Activity
SK-MEL-2 = assay: Antiproliferative activity against human SK-MEL-2 cells assessed as cell growth at 10 uM relative to control; type: functional; details: read-out: Activity
RXF 393 = assay: Antiproliferative activity against human RXF 393 cells assessed as cell growth at 10 uM relative to control; type: functional; details: read-out: Activity
SF-295 = assay: Antiproliferative activity against human SF-295 cells assessed as cell growth at 10 uM relative to control; type: functional; details: read-out: Activity
HOP-62 = assay: Antiproliferative activity against human HOP-62 cells assessed as cell growth at 10 uM relative to control; type: functional; details: read-out: Activity
SF-539 = assay: Antiproliferative activity against human SF-539 cells assessed as cell growth at 10 uM relative to control; type: functional; details: read-out: Activity
SNB-19 = assay: Antiproliferative activity against human SNB-19 cells assessed as cell growth at 10 uM relative to control; type: functional; details: read-out: Activity
NCI-H23 = assay: Antiproliferative activity against human NCI-H23 cells assessed as cell growth at 10 uM relative to control; type: functional; details: read-out: Activity
RPMI-8226 = assay: Antiproliferative activity against human RPMI-8226 cells assessed as cell growth at 10 uM relative to control; type: functional; details: read-out: Activity
HOP-92 = assay: Antiproliferative activity against human HOP-92 cells assessed as cell growth at 10 uM relative to control; type: functional; details: read-out: Activity
T47D = assay: Antiproliferative activity against human T47D cells assessed as cell growth at 10 uM relative to control; type: functional; details: read-out: Activity
DU-145 = assay: Antiproliferative activity against human DU-145 cells assessed as cell growth at 10 uM relative to control; type: functional; details: read-out: Activity
HCC 2998 = assay: Antiproliferative activity against human HCC 2998 cells assessed as cell growth at 10 uM relative to control; type: functional; details: read-out: Activity
TK-10 = assay: Antiproliferative activity against human TK-10 cells assessed as cell growth at 10 uM relative to control; type: functional; details: read-out: Activity
KM12 [2] = assay: Antiproliferative activity against human KM12 cells assessed as cell growth at 10 uM relative to control; type: functional; details: read-out: Activity
IGROV-1 = assay: Antiproliferative activity against human IGROV-1 cells assessed as cell growth at 10 uM relative to control; type: functional; details: read-out: Activity
SK-MEL-28 = assay: Antiproliferative activity against human SK-MEL-28 cells assessed as cell growth at 10 uM relative to control; type: functional; details: read-out: Activity
CCRF-CEM = assay: Antiproliferative activity against human CCRF-CEM cells assessed as cell growth at 10 uM relative to control; type: functional; details: read-out: Activity
HCT-15 = assay: Antiproliferative activity against human HCT-15 cells assessed as cell growth at 10 uM relative to control; type: functional; details: read-out: Activity
UACC-257 = assay: Antiproliferative activity against human UACC-257 cells assessed as cell growth at 10 uM relative to control; type: functional; details: read-out: Activity
EKVX = assay: Antiproliferative activity against human EKVX cells assessed as cell growth at 10 uM relative to control; type: functional; details: read-out: Activity
OVCAR-8 = assay: Antiproliferative activity against human OVCAR-8 cells assessed as cell growth at 10 uM relative to control; type: functional; details: read-out: Activity
HL-60(TB) = assay: Antiproliferative activity against human HL-60(TB) cells assessed as cell growth at 10 uM relative to control; type: functional; details: read-out: Activity
MCF7 = assay: Antiproliferative activity against human MCF7 cells assessed as cell growth at 10 uM relative to control; type: functional; details: read-out: Activity
SK-OV-3 = assay: Antiproliferative activity against human SK-OV-3 cells assessed as cell growth at 10 uM relative to control; type: functional; details: read-out: Activity
ACHN = assay: Antiproliferative activity against human ACHN cells assessed as cell growth at 10 uM relative to control; type: functional; details: read-out: Activity
KM12 [3] = assay: Cytotoxicity against human KM12 cells assessed as reduction in cell viability incubated for 72 hrs by resazurin based assay; type: functional; details: KM12, 72 h
[4] = target: T1, High affinity nerve growth factor receptor; assay: Inhibition of recombinant His-tagged human TRKA (441 to 796 residues) expressed in baculovirus expression system at 20 uM using 5-FAM-EEPLYWSFPAKKK-CONH2 as substrate preincubated for 1 hr followed by substrate addition in presence of ATP by mobility shift assay relative to control
Target sequence in this assay (P04629 33-796 limits assumed): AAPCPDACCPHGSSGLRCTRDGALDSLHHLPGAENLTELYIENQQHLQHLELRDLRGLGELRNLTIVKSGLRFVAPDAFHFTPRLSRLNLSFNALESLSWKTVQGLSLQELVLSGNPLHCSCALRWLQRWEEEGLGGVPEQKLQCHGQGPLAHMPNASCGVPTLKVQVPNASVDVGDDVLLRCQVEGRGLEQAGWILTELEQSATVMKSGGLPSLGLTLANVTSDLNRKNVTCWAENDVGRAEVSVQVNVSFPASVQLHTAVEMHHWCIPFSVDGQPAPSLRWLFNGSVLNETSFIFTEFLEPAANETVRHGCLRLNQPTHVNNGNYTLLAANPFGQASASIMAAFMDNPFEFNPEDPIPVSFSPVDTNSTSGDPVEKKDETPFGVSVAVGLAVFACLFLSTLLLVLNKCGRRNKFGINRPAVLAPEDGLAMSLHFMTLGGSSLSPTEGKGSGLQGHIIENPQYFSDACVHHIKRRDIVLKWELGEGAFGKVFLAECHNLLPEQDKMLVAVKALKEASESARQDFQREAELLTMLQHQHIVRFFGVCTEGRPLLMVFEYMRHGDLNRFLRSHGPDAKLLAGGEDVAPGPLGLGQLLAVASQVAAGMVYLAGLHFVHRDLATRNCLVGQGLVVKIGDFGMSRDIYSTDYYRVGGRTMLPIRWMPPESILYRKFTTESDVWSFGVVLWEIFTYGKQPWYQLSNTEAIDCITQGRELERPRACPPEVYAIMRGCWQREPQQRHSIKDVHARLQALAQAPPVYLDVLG

COc1cc(-c2cc3ncnc(Nc4ccc(CC(=O)Nc5ccc(F)c(Cl)c5)cc4)c3s2)cc(OC)c1OC
pIC50 [1]: < 3.70

Cn1cc(-c2cc3ncnc(Nc4ccc(CC(=O)Nc5ccc(C(C)(C)C)cc5)cc4)c3s2)cn1
growth at 10 µM (UO-31): 102% | growth at 10 µM (Malme-3M): 102% | growth at 10 µM (COLO 205): 120% | growth at 10 µM (SF-268): 101% | growth at 10 µM (NCI/ADR-RES): 108% | growth at 10 µM (SK-MEL-5): 98.3% | growth at 10 µM (CAKI-1): 86% | growth at 10 µM (K562): 91.5% | growth at 10 µM (HCT-116): 104% | growth at 10 µM (U-251): 88.3% | growth at 10 µM (SN12C): 98.5% | growth at 10 µM (UACC-62): 101% | growth at 10 µM (PC-3): 99.1% | growth at 10 µM (OVCAR-3): 110% | growth at 10 µM (Hs-578T): 88.8% | growth at 10 µM (LOX IMVI): 106% | growth at 10 µM (BT-549): 107% | growth at 10 µM (SNB-75): 75% | growth at 10 µM (OVCAR-5): 118% | growth at 10 µM (MDA-MB-468): 90.9% | growth at 10 µM (MDA-MB-435): 104% | growth at 10 µM (M14): 102% | growth at 10 µM (SR): 102% | growth at 10 µM (MOLT-4): 97.5% | growth at 10 µM (OVCAR-4): 98.6% | growth at 10 µM (MDA-MB-231): 105% | growth at 10 µM (NCI-H322M): 99.7% | growth at 10 µM (HT-29): 102% | growth at 10 µM (NCI-H522): 93% | growth at 10 µM (A549): 98.3% | growth at 10 µM (SW-620): 119% | growth at 10 µM (A498): 88.1% | growth at 10 µM (NCI-H226): 95.5% | growth at 10 µM (NCI-H460): 99% | growth at 10 µM (786-0): 101% | growth at 10 µM (SK-MEL-2): 105% | growth at 10 µM (RXF 393): 93.2% | growth at 10 µM (SF-295): 117% | growth at 10 µM (HOP-62): 125% | growth at 10 µM (SF-539): 66.9% | growth at 10 µM (SNB-19): 101% | growth at 10 µM (NCI-H23): 106% | growth at 10 µM (RPMI-8226): 103% | growth at 10 µM (HOP-92): 132% | growth at 10 µM (T47D): 93.7% | growth at 10 µM (DU-145): 98.2% | growth at 10 µM (HCC 2998): 136% | growth at 10 µM (TK-10): 98.6% | growth at 10 µM (KM12 [2]): 22.4% | growth at 10 µM (IGROV-1): 98.2% | growth at 10 µM (SK-MEL-28): 107% | growth at 10 µM (CCRF-CEM): 100% | growth at 10 µM (HCT-15): 102% | growth at 10 µM (UACC-257): 110% | growth at 10 µM (EKVX): 93.2% | growth at 10 µM (OVCAR-8): 103% | growth at 10 µM (HL-60(TB)): 97.8% | growth at 10 µM (MCF7): 96.2% | growth at 10 µM (SK-OV-3): 120% | growth at 10 µM (ACHN): 84.3%

O=C(Cc1ccc(-c2ncnc3ccsc23)cc1)N[C@@H]1CCCC[C@H]1O
pIC50 (KM12 [3]): < 3.70 | inhibition [4]: 18%

CC(C)(C)c1cc(NC(=O)Cc2ccc(-c3ncnc4ccsc34)cc2)no1
pIC50 (KM12 [3]): 4.06 | inhibition [4]: 18%

COc1ccc(Nc2ncnc3ccsc23)cc1
pIC50 (KM12 [3]): 3.99 | inhibition [4]: 18%

O=C(Cc1ccc(Nc2ncnc3ccsc23)cc1)N[C@@H]1CCCC[C@@H]1O
pIC50 (KM12 [3]): < 3.70 | pIC50 [1]: 4.38

Fc1ccc(Nc2ncnc3ccsc23)cc1
pIC50 (KM12 [3]): 3.88 | inhibition [4]: 17.4%
